Measurements published in patent US10829506B2, “Amino- or ammonium-containing sulfonic acid, phosphonic acid and carboxylic acid derivatives and their medical use” (GRI Bio, Inc., priority 2011, dated 2020).
Read-outs that look alike come from different tables or passages of the source.

What was measured:
RBL-2H3 cells [1] = assay: Inhibition of mast cell degranulation (β-hexosaminidase release); format: cell-based, rat; settings: for IC50: RBL-2H3 cells sensitized with anti-DNP IgE, triggered with DNP-HSA, 1 h preincubation
Source text: Mast cells are key effector cells involved in allergic and inflammatory diseases, and the Rat Basophilic Leukemia clone 2H3 (RBL-2H3) cell line is a commonly used model of allergen dependent immune modulator release (degranulation) in mast cells. On their surface, they express the high affinity receptor for IgE (FcεRI). Upon binding of antigen-specific IgE to the receptor, cells become sensitized to the IgE specific antigen (allergen). When IgE-sensitized cells then encounter multivalent antigen, the antigen clusters IgE-FcεRI complexes and initiates a signal transduction cascade that leads to degranulation, that is, the release of inflammatory mediators, such as cytokines, eicosanoids, histamine and enzymes. The assay can be used as a screening method to identify immune-modulating compounds, in particular compounds useful in the medical management of allergic and inflammatory diseases and asthma, β-hexosaminidase was previously shown to be released with the same kinetics as histamine (Schwartz et al., J Immunology; 123:1445-1450 (1979)), thus offering a simple means to monitor degranulation. The RBL-2H3 cell line has been successfully used to identify compounds with anti-allergic activity (Choo et al. Planta Med., 69:518-522 (2003)).
Cell Culture: RBL-2H3 cells obtained from the German Collection of Microorganisms and Cell Cultures (ACC312) (Braunschweig, Germany) were maintained in 70% Minimum Essential Medium with Earle's Salts, 20% RPMI 1640 Medium, 10% FBS and 2 mM l-glutamine in 95% air/5% CO2 at 37° C. and routinely checked for mycoplasma contamination. Cells were passaged every 3-4 days; after washing cells once with 35 ml PBS cells were incubated 8 min with 5 ml 0.05% Trypsin-EDTA solution at 37° C. Cells were removed from the incubator, 15 ml culture medium was added and cells were resuspended by repeated pipetting.
Cell seeding: cells were harvested with Trypsin-EDTA as described and 50-100 μl cell suspension seeded Into Costar CellBind 24 well cluster plates (no. 3337). Plates were kept for 30 min at RT under the sterile hood before being transferred to the incubator. Cells were used within one or two days after seeding.
For sensitization, cells for immediate use were sensitized 6-12 h after plating; cells to be used the following day were sensitized 26-38 h after plating. Culture plates were removed from the incubator and checked for cell growth and contamination. The medium was discarded and cells were sensitized with anti-DNP IgE (0.4 μg/ml) in 0.4 ml culture medium overnight. Following overnight sensitization, cells were washed with 0.8 ml pre-warmed TyB and 0.38 ml test compound or vehicle control (supplemented or not with 1% FBS) were added to duplicate wells. Samples were adjusted to contain 1% vehicle for test compounds dissolved in organic solvents. Cells were incubated for 1 h at 37° C. At the end of the incubation period, cells were routinely stimulated with 20 μl DNP-HSA (2 μg/ml; final concentration 0.1 μg/ml) diluted in TyB and cells were incubated for 15 min at 37° C. Alternatively, cells were stimulated with 20 μl […] (final concentration 0.25 μM) or 20 nM […] (final concentration 0.25 μM), both in the absence or presence of 20 nM PMA (final concentration).
Plates were removed from the incubator and immediately centrifuged at 4° C. for 5 min at 250×g and transferred to an ice bath. Aliquots of supernatants, 25 μl, were transferred to 96-well plates. Remaining supernatant was aspirated from control wells and cells were lysed in […] lysis buffer for 5 min at RT on an orbital shaker at 450 rpm under non-sterile conditions. After lysis, 25 μl aliquots of lysates were transferred to 96-well plates.
MUG substrate solution, 100 μl, were added to supernatant and lysate samples and plates were incubated 30 min at 37° C. The reaction was terminated by addition of 150 μl stop solution. Fluorescence was measured at 365 nm excitation and 440 nm emission wavelengths. […]

RBL-2H3 cells [2] = assay: Maximum tolerated concentration (cytotoxicity by lactate dehydrogenase release); format: cell-based, rat
Source text: A commercially available cytotoxicity test was used (Promega Cytotox-One cat. #67891).
The safety index (SI) of a test compound Is the ratio between the maximum tolerated concentration and the 1C50 and is used as a measure of the relative safety of the test compound.

[3] = Rattus norvegicus, 25 μM, RBL-2H3 cells
[4] = highest concentration not causing cytotoxicity, LDH release
[5] = ratio between maximum tolerated concentration and IC50

Structure (SMILES) | MTC (maximum tolerated concentration) (RBL-2H3 cells [2]; [4]) | IC50 (RBL-2H3 cells [1]) | IC50 (RBL-2H3 cells [1]; Rattus norvegicus) | SI (safety index, ratio MTC/IC50) (RBL-2H3 cells [2]; [5]) | other results
CCCCCCCCCCCCCC[N@+]1(CCCS(=O)(=O)[O-])CCC[C@H](C(=O)N(CC)CC)C1 (racemic) [Compound 2c, Trans-N-Tetradecyl-N-(3-Sulfonatopropyl)-3-Diethylaminocarbonyl-Piperidinium] | 100 µM |  |  |  | inhibition at 25 µM (RBL-2H3 cells [1]; [3]): 50%
CCCCCCCCCCCCCCN(C)CCCS(=O)(=O)O [Compound 1b, 3-(N-Methyltetracylammonio)Propanesulfonate] |  | 4.3 µM |  |  | MTC (maximum tolerated concentration) (RBL-2H3 cells [2]): 100 µM; SI (safety index, ratio MTC/IC50) (RBL-2H3 cells [2]): 23.3
CCCCCCCCCCCCCC[N+](C)(C)CCS(=O)(=O)[O-] [Compound 1d, 2-(N,N-Dimethyltetradecylammonio)Ethanesulfonate] | 100 µM |  | 3.9 µM | 25.6 | 
CCCCCCCCCCCCCC[N+](C)(C)CCCCS(=O)(=O)[O-] [Compound 1e, 4-(N1N-Dimethylmyristylammonio)Butanesulfonate] |  | 3.7 µM |  |  | MTC (maximum tolerated concentration) (RBL-2H3 cells [2]): 150 µM; SI (safety index, ratio MTC/IC50) (RBL-2H3 cells [2]): 40.5
CCCCCCCCCCCCCC[N+](C)(C)CC(CC)CS(=O)(=O)[O-] (centres unmarked) [Compound 1f, 2-((Dimethyl(Tetradecyl)Ammonio)Methyl)Butane-1-Sulfonate] | 75 µM |  | 4 µM | 18.8 | 
CCCCCCCCCCCCCCCCCC[N+](C)(C)CCCS(=O)(=O)[O-] [Compound 1g, 3-(N,N-Dimethyloctadecylammonio)Propanesulfonate] | 50 µM |  | 9.5 µM | 5.3 | 
CCCCCCCCCCCCCCCC[N+](C)(C)CCCS(=O)(=O)[O-] [Compound 1h, 3-(N,N-dimethyIpalmitylammonio)propansulfonate] |  | 3.7 µM |  |  | MTC (maximum tolerated concentration) (RBL-2H3 cells [2]): 50 µM; SI (safety index, ratio MTC/IC50) (RBL-2H3 cells [2]): 13.5
CCCCCCCCCCCC[N+](C)(C)CCCS(=O)(=O)[O-] [Compound 1i, 3-(N,N-dimethyldodecyl-ammonio) propanesulfonate] |  | 4.1 µM |  |  | MTC (maximum tolerated concentration) (RBL-2H3 cells [2]): 200 µM; SI (safety index, ratio MTC/IC50) (RBL-2H3 cells [2]): 48.8
CCCCCCCCCCCCCC[N+](C)(C)CC(=O)[O-] [Compound 1j, N-Tetradecyl-N,N-Dimethylglycine] | 75 µM | 5.1 µM |  | 14.7 | 
CCCCCCCCCCCCCC[N+](C)(C)CCC(=O)[O-] [Compound 1k, 3-(Dimethyl(Tetradecyl)Ammonio)Propanoate] | 100 µM |  | 5.3 µM | 18.9 | 
CCCCCCCCCCCC[N+](C)(C)CCC(=O)[O-] [Compound 1m, 3-(Dimethyl(Dodecyl)Ammonio)Propanoate] | 100 µM |  |  |  | inhibition at 25 µM (RBL-2H3 cells [1]; [3]): 73%
CCCCCCCCCCCCCCN(C)CCCC(=O)O [Compound 1n, 4-(Methyl(Tetradecyl)Ammonio)Butanoate] | 100 µM |  | 8 µM | 12.5 | 
CCCCCCCCCCCCCC[N+](C)(C)CCCC(=O)[O-] [Compound 1o, 4-(Dimethyl(Tetradecyl)Ammonio)Butanoate] | 100 µM |  |  |  | inhibition at 25 µM (RBL-2H3 cells [1]; [3]): 65%
CCCCCCCCCCCC[N+](C)(C)CC(=O)[O-] [Compound 1p, N-Dodecyl-N,N-Dimethylglycine] |  |  |  |  | Inhibition of degranulation: % inhibition at 25 μM (RBL-2H3 cells [1]; 25 μM, RBL-2H3 cells): 50%; MTC (maximum tolerated concentration) (RBL-2H3 cells [2]): 100 µM
CCCCCCCCCCCCN(C)CCS(=O)(=O)O [Compound 1q, 2-(N-Methyldodecylammonio)Ethanesulfonate] | 200 µM |  | 8.8 µM | 22.7 | 
CCCCCCCCCCCC[N+](C)(C)CCS(=O)(=O)[O-] [Compound 1r, 2-(N,N-Dimethyldodecylammonio)Ethanesulfonate] | 200 µM |  | 4.2 µM | 47.6 | 
CCCCCCCCCCCCCCN(C)CCS(=O)(=O)O [Compound 1s, 2-(N-Methyltetradecylammonio)Ethanesulfonate] | 100 µM |  | 5.6 µM | 17.9 | 
CCCCCCCCCCCC[N+](C)(C)CCCP(=O)(O)O [Compound 1t, 3-(N,N-Dimethyldodecylammonio)Propylphosphonic Acid] | 200 µM | 6.1 µM |  | 32.8 | 
CCCCCCCCCCCCCCN(C)CCCP(=O)(O)O [Compound 1u, 3-(N-Methyl-N-Tetradecylamino)Propylphosphonic Acid (Betaine)] | 200 µM | 5.9 µM |  | 33.9 | 
CCCCCCCCCCCCCCCCN(C)CCCP(=O)(O)O [Compound 1v, 3-(N-Methyl-N—Hexadecylamino)Propylphosphonic Acid] | 200 µM |  | 8.8 µM | 22.7 | 
Br.CCCCCCCCCCCCCCCCN(C)CCCP(=O)(OCC)OCC [Compound 1w, 3-(N-Methyl-N—Hexadecylamino)Propylphosphonic Acid Diethylester Hydrobromide] | 200 µM |  | 6.9 µM | 29.0 | 
Br.CCCCCCCCCCCCCCN(C)CCCP(=O)(OCC)OCC [Compound 1x, 3-(N-Methyl-N-Tetradecylamino)Propylphosphonic Acid Diethyiester Hydrobromide] | 100 µM | 5.5 µM |  | 18.2 | 
CCCCCCCCCCCCCCCC[N+]1(CCCS(=O)(=O)[O-])CCCCC1 [Compound 2a, N—Hexadecyl-N-(3-Sulfonatopropyl)Piperidinium] | 50 µM |  | 4.5 µM | 11.1 | 
CCCCCCCCCCCCCCCC[N+]1(CCCS(=O)(=O)[O-])CCC(O)CC1 (centres unmarked) [Compound 2b, 1-Hexadecyl-1-(3-Sulfonatopropyl)-4-Hydroxypiperidinium] | 50 µM |  | 4.3 µM | 11.6 | 
CCCCCCCCCCCCCCCCOP(=O)([O-])OCC[N+](C)(C)C [Miltefosine, reference compound] |  |  | 4.2 µM |  | MTC (maximum tolerated concentration) (RBL-2H3 cells [2]; rat): 25 µM; SI (safety index, ratio MTC/IC50) (RBL-2H3 cells [2]; rat): 6.0
